Measured values taken from PubChem BioAssay (NCI).
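48-hour exposure; five concentrations; linearly interpolated endpoints. GI50 marks 50% less growth. Definition used: TGI = concentration required for complete inhibition of growth.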

How the values were obtained:
Experiment in all cases: growth of human tumour cells (NCI), 48 h
SNB-75 CNS = tested on: SNB-75 CNS
HCT-116 colon = tested on: HCT-116 colon
SF-539 CNS = tested on: SF-539 CNS
U251 CNS = tested on: U251 CNS
UO-31 renal = tested on: UO-31 renal
SF-295 CNS = tested on: SF-295 CNS
MCF7 breast = tested on: MCF7 breast
HT29 colon = tested on: HT29 colon
NCI-H23 lung = tested on: NCI-H23 lung
ACHN renal = tested on: ACHN renal

Structure (SMILES)	TGI (SNB-75 CNS) [nM]	TGI (HCT-116 colon) [nM]	TGI (SF-539 CNS) [nM]	TGI (U251 CNS) [nM]	TGI (UO-31 renal) [nM]	TGI (SF-295 CNS) [nM]	TGI (MCF7 breast) [nM]	TGI (HT29 colon) [nM]	TGI (NCI-H23 lung) [nM]	TGI (ACHN renal) [nM]	GI50 (SNB-75 CNS) [nM]	GI50 (HCT-116 colon) [nM]	GI50 (SF-539 CNS) [nM]	GI50 (U251 CNS) [nM]	GI50 (UO-31 renal) [nM]	GI50 (ACHN renal) [nM]	GI50 (SF-295 CNS) [nM]	GI50 (MCF7 breast) [nM]	GI50 (HT29 colon) [nM]	GI50 (NCI-H23 lung) [nM]
CC(=O)NC1=C[C@@H]([C@H]2COC(C)(C)O2)OC1=O	> 100000	> 100000	> 100000	> 100000	> 100000	> 100000	> 100000	> 100000	> 100000	–	–	–	–	–	–	–	–	–	–	–
COC(=O)N1CC2C3C4CC(C(c5ccccc5)=C4c4ccccc4)C3C21 (configuration not stated)	76400	25700	32000	27500	26000	32400	78300	37700	98100	52300	–	–	–	–	–	–	–	–	–	–
O=C(Nc1ccc(-n2ccc3c(NC(=O)c4ccccc4)ncnc32)cc1)Nc1cccc(Cl)c1Cl	2710	2380	5690	1400	1560	> 50000	5810	2110	11000	4060	777	673	1120	571	786	1350	2220	1120	808	1640
C=C(OC1C(C)=C2C(C1OC(=O)CCCCCCC)C(C)(OC(C)=O)CC(OC(=O)CCC)C1(O)C2OC(=O)C1(C)O)/C(C)=C/C (configuration not stated)	1610	0.151	8010	1730	614	3220	191	1800	3820	–	< 0.1	< 0.1	< 0.1	< 0.1	170	–	< 0.1	–	< 0.1	< 0.1
CCOC(=O)CC1(c2cccc3ccccc23)OC(=O)c2ccccc21 (configuration not stated)	75800	–	–	> 100000	65900	> 100000	–	> 100000	69200	> 100000	–	–	–	–	–	–	–	–	–	–
CC/C=C(\C(=C/CC)[N+](=O)[O-])[N+](=O)[O-]	> 100000	35100	40300	34300	33000	> 100000	38100	31900	34300	33200	–	–	–	–	–	–	–	–	–	–
Nc1nc(N)c2cc(NCc3ccc(Cl)c(Cl)c3)ccc2n1	2480	1580	3040	2370	2890	2610	2750	2050	2610	2580	1230	391	1650	1120	1350	1310	1220	1360	813	1190
O=C(O)/C(Cc1ccc([N+](=O)[O-])cc1)=N\O	–	> 100000	> 100000	> 100000	> 100000	> 100000	> 100000	> 100000	> 100000	> 100000	–	–	–	–	–	–	–	–	–	–
